# The supplement of paper PMC10307832
# What was measured:
# Experiment in all cases: relative viability (nuclei count vs DMSO), 5 days (fraction); higher = more cells survive
# Vemurafenib + Bortezomib = compound: CCCS(=O)(=O)Nc1ccc(F)c(C(=O)c2c[nH]c3ncc(-c4ccc(Cl)cc4)cc23)c1F [Vemurafenib] + CC(C)C[C@H](NC(=O)[C@H](Cc1ccccc1)NC(=O)c1cnccn1)B(O)O [Bortezomib] (partner 0.002 µM)
# In short: (§1)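 Each reported value is a median over duplicate plates. It expresses relative viability: treated-well nuclei count divided by vehicle-well nuclei count. Lung cancer cell lines in 1536-well plates were dosed by pin tool a day after seeding, alone with one drug or with a fixed anchor-drug dose plus five library-drug doses (not always all listed) in √10 steps, and nuclei were counted after 5 days.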
# Vemurafenib + AZD7762 = compound: CCCS(=O)(=O)Nc1ccc(F)c(C(=O)c2c[nH]c3ncc(-c4ccc(Cl)cc4)cc23)c1F [Vemurafenib] + NC(=O)Nc1cc(-c2cccc(F)c2)sc1C(=O)N[C@H]1CCCNC1 [AZD7762] (partner 0.2 µM)
# In short: as §1
# Vemurafenib + Decitabine = compound: CCCS(=O)(=O)Nc1ccc(F)c(C(=O)c2c[nH]c3ncc(-c4ccc(Cl)cc4)cc23)c1F [Vemurafenib] + Nc1ncn([C@H]2C[C@H](O)[C@@H](CO)O2)c(=O)n1 [Decitabine] (partner 2 µM)
# In short: as §1
# OSI-027 + Vorinostat = compound: COc1cccc2cc(-c3nc([C@H]4CC[C@H](C(=O)O)CC4)n4ncnc(N)c34)[nH]c12 [OSI-027] + O=C(CCCCCCC(=O)Nc1ccccc1)NO [Vorinostat] (partner 1 µM)
# In short: as §1
Cell Line,relative viability (Vemurafenib + Bortezomib; first compound 0.03162 µM),relative viability (Vemurafenib + Bortezomib; first compound 0.3162 µM),relative viability (Vemurafenib + Bortezomib; first compound 1 µM),relative viability (Vemurafenib + AZD7762; first compound 0.03162 µM),relative viability (Vemurafenib + AZD7762; first compound 0.1 µM),relative viability (Vemurafenib + AZD7762; first compound 0.3162 µM),relative viability (Vemurafenib + AZD7762; first compound 1 µM),relative viability (Vemurafenib + Decitabine; first compound 0.03162 µM),relative viability (Vemurafenib + Decitabine; first compound 0.1 µM),relative viability (Vemurafenib + Decitabine; first compound 0.3162 µM),relative viability (Vemurafenib + Decitabine; first compound 1 µM),relative viability (OSI-027 + Vorinostat; first compound 0.01 µM),relative viability (OSI-027 + Vorinostat; first compound 0.03162 µM),relative viability (OSI-027 + Vorinostat; first compound 0.3162 µM),relative viability (OSI-027 + Vorinostat; first compound 1 µM),relative viability (Vemurafenib + Bortezomib; first compound 0.1 µM),relative viability (OSI-027 + Vorinostat; first compound 0.1 µM)
HARA,1.08,0.603,1.12,0.0775,0.292,0.168,0.37,0.458,0.368,0.673,0.703,0.581,0.568,0.507,0.251,–,–
HCC-15,0.958,0.848,0.844,1.05,1.22,1.17,1.1,0.561,0.64,0.59,0.77,0.835,0.838,0.616,0.424,1.01,0.779
HCC-44,0.861,0.824,0.861,0.945,0.975,1.2,1.03,0.869,1.02,0.949,1,1.11,1.16,1.09,0.757,0.993,1.17
HCC-78,0.433,0.674,0.506,0.513,0.493,0.65,0.777,0.61,0.57,0.705,0.744,0.477,0.326,0.329,0.268,0.439,0.384
HCC-366,1,–,1.06,0.305,0.213,–,0.259,0.332,0.327,–,0.333,0.404,0.367,0.314,0.194,1.05,0.325
HCC-827,0.968,0.765,1.16,0.234,–,0.198,0.265,0.27,–,0.326,0.35,0.61,0.851,0.852,0.475,–,0.768
HOP-62,0.814,0.648,1.07,0.551,0.558,0.395,0.668,0.196,0.202,0.216,0.2,0.586,0.662,0.546,0.296,0.868,0.53
LC-2-ad,0.918,0.829,0.976,0.831,0.615,0.749,0.818,0.8,0.706,0.859,0.796,0.718,0.703,0.854,0.549,0.956,0.758
LCLC-97TM1,0.495,0.528,0.742,0.286,0.298,0.326,0.342,–,0.236,0.242,0.213,0.816,0.642,0.503,0.345,0.587,0.699
LCLC-103H,0.975,0.843,1.09,0.757,0.741,0.617,0.694,0.698,0.714,0.717,0.75,0.781,0.64,0.704,0.613,1.04,0.747
